This is an account of results in publication PMC9656727, “Biodereplication of Antiplasmodial Extracts: Application of the Amazonian Medicinal Plant Piper coruscans Kunth” (Molecules, 2022).

For series [1], the system named is 3D7 Plasmodium falciparum strain. The note with it: artemisinin reference value; read-out: 3D7 Sensitive Strain IC50; cited from earlier work.
Series [2] in a line: Heme-binding assay by mass spectrometry with collision-induced dissociation of adducts (DV50). The note with it: energy dissociating 50% of the heme-Fe(III) adduct, NA = no adduct. Here is the method: Hemin (iron-containing porphyrin with chlorine counterion) and the crude ethanolic extract were dissolved in DMSO at 5 mM and 10 mg/mL, respectively. Pure compounds were dissolved in DMSO at the concentration of 10 mM, except for Tween 20, which was dissolved in water at 10 µM. Citric-buffer-saturated octanol (CBSO) was prepared by mixing 5 mL of citric acid, 50 mM and pH 5.2, and 15 mL of N-octanol (anhydrous, ≥99%) and letting it settle at 23 °C for 30 min. The upper phase of the CBSO biphasic system was used. Autosampler 1260 infinity G1367E 1260 Hip ALS (Agilent Technologies, Santa Clara, CA, USA) was used to perform the automatic mixing of aliquots in 384-well plates. The incubation mixture was as follows: Compound 5 µL + heme 5 µL + Tween 5 µL + organic phase of CBSO 85 µL. Samples were injected in infusion mode (direct injection) in a 6530 Accurate-Mass QToF LC–MS instrument (Agilent Technologies) with the following settings: Positive ESI mode and 2 GHz acquisition rate. […] In positive-ion mode, purine ion C5H4N4 [M + H]^+ (m/z 121.050873) and the hexakis (1H,1H,3H-tetrafluoropropoxy)-phosphazene ion C18H18F24N3O6P3 [M+H]^+ (m/z 922.009798) were used as internal lock masses. Full scans were acquired at a resolution of ca 11 000 (at m/z 922).
To obtain heme-Fe(II) from hemin (heme-Fe(III)), glutathione (50 mM in water) was mixed with hemin (5 mM in DMSO) in a ratio of 1:1 and left to incubate for 40 min. This solution was used as the heme solution, as described above.
Dissociation in the collision chamber was caused by increasing collision energies from 0 to 56 eV. The MS–MS targeted mode, an isolation width of m/z 1.3, and the flow injection analysis mode (FIA) were applied. MS–MS parameters were the same as described above. The results were plotted, and a sigmoidal regression curve allowed us to calculate the energy necessary to dissociate 50% of adducts (DV50) using GraphPrism software version 5.00 (San Diego, CA, USA) or a Python script.
Ethanolic extract and hemin (heme-Fe(III)) were mixed and injected using infusion mode for the MS–MS experiment. Three collision energies were used: 30, 50, and 70 eV. The ten most intense ions (top 10) per cycle were selected. MS–MS acquisition parameters were as follows: m/z range of 100–1700, default charge of 1, a minimum intensity of 5000 counts, 3 spectra/s, and isolation width of 1.3 m/z. A list of compounds was generated by the “find by auto MSMS” algorithm of MassHunter software (Qualitative Analysis B.07.00, Agilent Technologies). The “extract average MS–MS spectrum” mode was used to summarize and average the results of the 3 collision energies. Exportation of generated spectra was performed in MGF format using the option “entire data file”. The information generated was uploaded onto the online platform GNPS (global natural product social network). Parameters used for the algorithm were as follows: Precursor ion mass tolerance = 1; fragment ion mass tolerance = 0.3; min pairs cos = 0.7; minimum matched fragment ions = 3; and minimum cluster size = 1. From the data, a network was calculated measuring correlations and was plotted using Cytoscape 3.5.1. […] An alkaloid extract from Cinchona pubescens Vahl (Rubiaceae) and eight antiplasmodial drugs (chloroquine, quinine, amodiaquine, ketoconazole, miconazole, mefloquine, praziquantel, and sulfadoxine) were used as examples of the visualization of adduct fragments by MN. The methodology and conditions were the same as described above.

Series [3] concerns 3D7 Plasmodium falciparum strain. Kind of series: In vitro antiplasmodial activity on Plasmodium falciparum (SYBR Green I). The class given is cell-based. To be noted: for IC50: chloroquine-sensitive 3D7 strain, 44 h incubation. As for the experimental part: The strain was maintained in O+ human erythrocytes in an albumin-supplemented RPMI medium under continuous culture using the candle-jar method. […] After 44 h of incubation at 37 °C, the plates were subjected to 3 freeze-thaw cycles to achieve complete hemolysis. The parasite lysis suspension was diluted 1:5 in lysis buffer. In vitro susceptibility is expressed as the concentration inhibiting 50% of the parasite's growth (IC50). Parasite growth was determined using SYBR® Green I, a dye with strong fluorescence enhancement upon contact with DNA. Incorporation of the SYBR® Green I (Fisher Scientific, Illkirch-Graffenstaden, France) in parasite DNA was measured using the Master […]® (Eppendorf, Montesson, France) according to the following program to increase the SYBR® Green I incorporation: 90 °C (1 min) and a decrease to 10 °C over 5 min followed by fluorescence reading. Untreated infected and uninfected erythrocytes were used as controls and chloroquine diphosphate (Sigma, Lezennes, France) was used as a reference drug. IC50 was calculated by IC-estimator online software (www.antimalarial-icestimator.net, accessed on 18 January 2018).

Series [4] can be described thus: Cytotoxicity, Alamar Blue. The series is classed as cell-based, human. The note with it: human, 72 h treatment. Here is the method: (§1) Cells were seeded in 96-well plates (20,000 cells/mL) and incubated for 24 h, then treated with the drug for 72 h. […] Fluorescent viable cells were monitored after 5 h of incubation at 37 °C at a wavelength of 530 nm for excitation and 590 nm for emission in an FL600 luminescence spectrometer (Biotek, Colmar, France).
(In general: Alamar Blue is a resazurin reagent that responds to reducing activity.)

Series [5] concerns AB943 primary human dermal fibroblast cell line. The series is described as follows: Cytotoxicity, Alamar Blue. The note with it: for Selectivity Index CC50/IC50: CC50 on AB943 fibroblasts / IC50 on 3D7. The class given is cell-based. Here is the method:
as §1

The subject of another series is Trypanosoma brucei. Details: method as in PMID 28000515. To be noted: read-out: IC50 against Trypanosoma brucei; cited from earlier work.
Setting [6] is: AB943 primary human dermal fibroblast cells.

Where two headings read alike, the source gives them in different places.

As usually defined, the IC50 is the concentration that gives 50% inhibition. Turning to `C[C@@H]1CC[C@H]2[C@@H](C)C(=O)O[C@@H]3O[C@@]4(C)CC[C@@H]1[C@]32OO4` [ART, Artemisinin], the IC50 in series [1] is 0.004 µM.

As for `CCN(CC)CCCC(C)Nc1ccnc2cc(Cl)ccc12` (stereo not drawn) [CQ, Chloroquine, reference compound], the results for the DV50 in series [2] and in series [2] (listed as chloroquine) were 14.27 eV and “above 14 eV”, respectively.

As usually defined, the CC50 is the concentration at which the toxic effect on the cells reaches its halfway point. Regarding `COc1cc(OC)c(C(=O)/C=C/c2ccccc2)c(O)c1C` [Compound 1, aurentiacin], in series [3] (Plasmodium falciparum), the IC50 is 2.25 µM. In series [4] (setting [6]), this compound came in with a CC50 at 72 h of 68.5 µM. In series [5], the “Selectivity Index CC50/IC50” value came out at 30.4. This compound also gave a DV50 in series [2] of 5.15 eV.

As for `COc1cc(O)c(C)c(O)c1C(=O)/C=C/c1ccccc1` [Compound 2, 2′, 4′-dihydroxy-6′-methoxy-3′-methylchalcone], the IC50 in series [3] (Plasmodium falciparum) is 51 µM. Moreover, the CC50 at 72 h in series [4] (setting [6]) was > 100 µM. Besides, the “Selectivity Index CC50/IC50” value in series [5] is listed as 1.9. In series [2], this compound gave a DV50 of 5.93 eV.

As for `COc1cc(O)cc(O)c1C(=O)/C=C/c1ccccc1` [Compound 3, cardamomin], the IC50 in series [3] (Plasmodium falciparum) is 5.5 µM; in the series on Trypanosoma brucei it was 1.8 µM. Also, the CC50 at 72 h in series [4] (read-out: AB943 Primary Human Fibroblast CC50) stood at 58 µM. For the same compound, the “Selectivity Index CC50/IC50” value in series [5] is given as 10.5. In addition, the DV50 in series [2] is 5.60 eV.

As for `COc1cc2c(c(O)c1C)C(=O)CC(c1ccccc1)O2` (stereo not drawn) [Compound 4, strobopinin 7-methyl ether], the IC50 in series [3] (Plasmodium falciparum) came to 60 µM. The CC50 at 72 h in series [4] (setting [6]) is > 100 µM.

In series [3] (Plasmodium falciparum), `COc1c(C)c(O)c2c(c1C)OC(c1ccccc1)CC2=O` (stereo not drawn) [Compound 5, 5-hydroxy-7-methoxy-6,8-dimethyl flavanone] displayed a concentration for half-maximal inhibition (IC50) of 33.2 µM. The compound also registered a CC50 at 72 h in series [4] (setting [6]) of 23 µM. Also, the “Selectivity Index CC50/IC50” value in series [5] is <1.

`Cc1c(O)c(C)c2c(c1O)C(=O)CC(c1ccccc1)O2` (stereo not drawn) [Compound 6, desmethoxymatteucinol] yielded an IC50 in series [3] (Plasmodium falciparum) of 71 µM. Also, the CC50 at 72 h in series [4] (setting [6]) is > 100 µM. For the same compound, the “Selectivity Index CC50/IC50” value in series [5] is 1.4.

Compound `COc1cc(OC)c2c(c1C)OC(c1ccccc1)CC2=O` (stereo not drawn) [Compound 9, dimethyl cryptostrobin] returned an IC50 in series [3] (Plasmodium falciparum) of 85 µM. Further, the CC50 at 72 h in series [4] (setting [6]) was > 100 µM. Moreover, the “Selectivity Index CC50/IC50” value in series [5] was determined as 1.2. Besides, the DV50 in series [2] came to 7.68 eV.

`COC(=O)C1=CC(O)C(O)(C(=O)/C=C/c2ccccc2)C1` (stereo not drawn) [Compound 10]: the IC50 in series [3] (Plasmodium falciparum) was > 100 µM. In addition, in series [4] (setting [6]), the CC50 at 72 h was > 100 µM. In series [5], the “Selectivity Index CC50/IC50” value was 1.

For `COc1ccc(CCNC(=O)c2ccccc2)cc1` [Compound 11, N-Benzoyltyrarnine methyl ether], the “antiplasmodial activity (in words)” value in series [3] (3D7 strain) is listed as “no antiplasmodial activity”. Also, in series [3] (Plasmodium falciparum), the IC50 was > 100 µM. Besides, the CC50 at 72 h in series [4] (setting [6]) is > 100 µM. Besides, the “Selectivity Index CC50/IC50” value in series [5] was determined as 1. Further, the DV50 in series [2] is listed as 9.45 eV.

`O=C1C=Cc2ccccc21` [Compound 12, 1H-inden-1-one]: in series [3] (Plasmodium falciparum), the IC50 is > 100 µM. Besides, in series [4] (setting [6]), the CC50 at 72 h was > 100 µM. Also, in series [5], the “Selectivity Index CC50/IC50” value came out at 1.

alpinetin [Compound 7] gave an IC50 in series [3] of 72 µM. The CC50 in series [5] was > 100 µM. The same compound returned a DV50 in series [2] of 8.40 eV.

pinocembrin [Compound 8]: the IC50 in series [3] stood at 78 µM. The CC50 in series [5] (72 h treatment, read-out: AB943 Primary Human Fibroblast CC50) is > 100 µM. The compound further registered a DV50 in series [2] of 8.68 eV.
